# Source: BindingDB's records for doi:10.1111/j.1747-0285.2009.00905.x (Ariad Pharmaceuticals, 2010)
# Assays:
# [1] = molecular target: Proto-oncogene tyrosine-protein kinase Src (Homo sapiens, UniProt P12931); assay: In vitro kinase assay using Abl, Abl T315I or Src kinase.
# [2] = molecular target: Tyrosine-protein kinase ABL1 (Homo sapiens, UniProt P00519); assay: In Vitro Kinase Assay
# [3] = molecular target: Tyrosine-protein kinase ABL1 [T315I] (Homo sapiens, UniProt P00519, T315I); assay: In Vitro Kinase Assay
# Chain of Proto-oncogene tyrosine-protein kinase Src (P12931 whole entry, looked up): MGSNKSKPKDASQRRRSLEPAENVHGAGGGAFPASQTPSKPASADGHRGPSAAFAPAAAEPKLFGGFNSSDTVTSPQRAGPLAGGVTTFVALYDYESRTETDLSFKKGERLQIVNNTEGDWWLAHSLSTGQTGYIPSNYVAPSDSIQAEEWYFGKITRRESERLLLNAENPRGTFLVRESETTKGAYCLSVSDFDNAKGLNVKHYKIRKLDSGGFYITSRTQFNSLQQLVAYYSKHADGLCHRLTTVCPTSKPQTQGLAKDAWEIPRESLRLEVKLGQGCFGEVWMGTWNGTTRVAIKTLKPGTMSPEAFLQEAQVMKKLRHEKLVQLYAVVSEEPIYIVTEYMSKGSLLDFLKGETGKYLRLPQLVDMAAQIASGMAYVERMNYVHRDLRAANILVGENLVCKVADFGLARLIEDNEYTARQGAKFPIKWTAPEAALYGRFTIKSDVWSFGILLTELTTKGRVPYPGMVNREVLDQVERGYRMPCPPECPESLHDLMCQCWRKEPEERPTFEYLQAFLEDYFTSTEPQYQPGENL
compound,measurement,setting,value
Cc1ccc2[nH]ncc2c1/C=C/n1cnc2c(Nc3ccc(P(C)(C)=O)cc3)ncnc21,IC50,[1],< 0.5 nM
same,IC50,[2],< 0.5 nM
same,IC50,[3],> 10000 nM
Cc1cccc(C)c1/C=C/n1cnc2c(Nc3ccc(P(C)(C)=O)cc3)ncnc21 [AP24149],IC50,[1],9.1 nM
same,IC50,[3],8900 nM
